The target in the assay is T1, galectin-3C (carbohydrate recognition domain of galectin-3) (Homo sapiens, UniProt P17931).
T1 construct: gene LGALS3; carbohydrate recognition domain of galectin-3 (residues 113–250)
Description: ITC; X-ray crystal structure; NMR titration. It is filed as binding. (In general: In ITC the heat of successive injections is recorded.)

Structures are written as SMILES. Read-outs that look alike come from different tables or passages of the source.

T1 sequence (P17931 113-250): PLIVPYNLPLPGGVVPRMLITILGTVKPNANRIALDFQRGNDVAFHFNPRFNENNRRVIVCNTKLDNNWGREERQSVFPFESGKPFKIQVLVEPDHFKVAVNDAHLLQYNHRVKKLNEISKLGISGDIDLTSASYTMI

Usually Kd stands for the free concentration of one partner at which half of the binding sites on the other are occupied at equilibrium, for simple one-to-one binding. As to `OC[C@H]1O[C@@H](S[C@@H]2O[C@H](CO)[C@@H](O)[C@H](O)[C@H]2O)[C@H](O)[C@@H](n2cc(-c3ccc(F)cc3)nn2)[C@H]1O` [P], for the setting “read-out: Kd ITC (10^-6 M) ^a”, the Kd amounted to 2.46 µM. For `OC[C@H]1O[C@@H](S[C@@H]2O[C@H](CO)[C@@H](O)[C@H](O)[C@H]2O)[C@H](O)[C@@H](n2cc(-c3ccccc3F)nn2)[C@H]1O` [O], the equilibrium dissociation constant (Kd) was determined as 7.21 µM.

As for `OC[C@H]1O[C@@H](S[C@@H]2O[C@H](CO)[C@@H](O)[C@H](O)[C@H]2O)[C@H](O)[C@@H](n2cc(-c3cccc(F)c3)nn2)[C@H]1O` [M], the Kd (read-out: Kd ITC (10^-6 M) ^a) was 2 µM.

Values taken from article PMC8395690, “Entropy–Entropy Compensation between the Protein, Ligand, and Solvent Degrees of Freedom Fine-Tunes Affinity in Ligand Binding to Galectin-3C” (JACS Au, 2021).
